Test results as given in ChEMBL document CHEMBL6153089, “Design, Synthesis, and Biological Evaluation of Thieno[3,2-d]pyrimidine Derivatives as the First Bifunctional PI3Kδ Isoform Selective/Bromodomain and Extra-Terminal Inhibitors” (J Med Chem, 2025).
Calls of active or inactive are those of the source. The calls are words filed in the database; no cut-off is given here.

Legend:
[1] = molecular target: Phosphatidylinositol 4-phosphate 5-kinase type-1 alpha (Homo sapiens) (UniProt Q99755); assay: Inhibition of human PIP5K1alpha at 1 uM relative to control
SUD4 [2] = assay: Induction of apoptosis in human SU-DHL-4 cells assessed as late apoptotic cells at 0.25 uM incubated for 24 hrs by Annexin V-FITC/PI staining based flow cytometric analysis (reference value: 6.74 %); type: functional
[3] = Toxicity in female BALB/c mouse model xenografted with human SU-DHL-6 cells assessed as effect on kidney histopathology at 20 mg/kg, po administered once daily via gavage for 15 days by H and E staining based analysis; type: organism-based; conditions: in vivo, 360 h, time 15 day
SU-DHL-6 [4] = assay: Induction of apoptosis in human SU-DHL-6 cells assessed as decrease in Bcl-2 protein expression at 0.25 to 1 uM incubated for 12 hrs by Western blot analysis; type: functional, cell-based; conditions: dose 0.25-1 µM
[5] = molecular target: PI3-kinase p110-delta/p85-alpha (Homo sapiens) (UniProt P27986+O00329); assay: Inhibition of p110delta/p85alpha (unknown origin) at 100 nM incubated for 2 hrs in presence of ATP by ADP-kinaseGlo reagent based assay relative to control; type: protein-complex assay
[6] = molecular target: PI3-kinase p110-alpha/p85-alpha (Homo sapiens) (UniProt P27986+P42336); assay: Inhibition of human p110alpha/p85alpha at 1 uM relative to control; type: protein-complex assay
[7] = Half-life in female BALB/c mouse at 1 mg/kg, iv measured after 12 hrs by LC-MS/MS analysis; type: ADME, organism-based; conditions: in vivo
[8] = molecular target: Bromodomain testis-specific protein (Homo sapiens, UniProt Q58F21); assay: Inhibition of His-tagged BRDT-BD1 (unknown origin) incubated for 30 mins in presence of ATP by Alphascreen assay
SU-DHL-6 [9] = assay: Antitumor activity against human SU-DHL-6 cells xenografted in female BALB/c mouse model assessed as reduction in phosphorylated AKT level in tumor at 20 mg/kg, po administered once daily via gavage for 15 days by Western blot analysis; type: functional, organism-based; conditions: time 15.0 day
[10] = molecular target: Phosphatidylinositol 3-kinase C2 domain-containing subunit gamma (Homo sapiens) (UniProt O75747); assay: Inhibition of human PI3KC2gamma at 1 uM relative to control
SUD4 [11] = assay: Induction of apoptosis in human SU-DHL-4 cells assessed as necrotic cells at 0.25 uM incubated for 24 hrs by Annexin V-FITC/PI staining based flow cytometric analysis (reference value: 0.642 %); type: functional
[12] = molecular target: PI3-kinase p110-alpha/p85-alpha (Homo sapiens, UniProt P42336); assay: Inhibition of p110alpha/p85alpha (unknown origin) incubated for 2 hrs in presence of ATP by ADP-kinaseGlo reagent based assay; type: protein-complex assay
[13] = molecular target: Bromodomain-containing protein 4 (Homo sapiens, UniProt O60885); assay: Inhibition of His-tagged BRD4-BD2 (unknown origin) incubated for 30 mins in presence of ATP by Alphascreen assay
SU-DHL-6 [14] = assay: Cell cycle arrest in human SU-DHL-6 cells assessed as accumulation of cells at S phase incubated for 12 hrs by PI staining based flow cytometric analysis; type: functional; conditions: dose 0.25-1 µM
SU-DHL-6 [15] = assay: Antitumor activity against human SU-DHL-6 cells xenografted in female BALB/c mouse model assessed as tumor growth inhibition at 20 mg/kg, po administered once daily via gavage for 15 days relative to control; type: functional; conditions: SU-DHL-6, 360 h, time 15 day, read-out: TGI
SUD4 [16] = assay: Downregulation of c-Myc expression in human SU-DHL-4 cells at 0.25 to 1 uM incubated for 12 hrs by Western blot analysis; type: functional, cell-based; conditions: dose 0.25-1 µM
[17] = Toxicity in female BALB/c mouse model xenografted with human SU-DHL-6 cells assessed as effect on body weight at 20 mg/kg, po administered once daily via gavage for 15 days; type: organism-based; conditions: in vivo, 360 h, time 15 day
[18] = Tmax in female BALB/c mouse at 20 mg/kg, po measured after 24 hrs by LC-MS/MS analysis; type: ADME, organism-based; conditions: in vivo
SU-DHL-6 [19] = assay: Induction of apoptosis in human SU-DHL-6 cells assessed as early apoptotic cells at 1 uM incubated for 24 hrs by Annexin V-FITC/PI staining based flow cytometric analysis (reference value: 32.1 %); type: functional
SU-DHL-6 [20] = assay: Induction of apoptosis in human SU-DHL-6 cells assessed as necrotic cells at 0.25 uM incubated for 24 hrs by Annexin V-FITC/PI staining based flow cytometric analysis (reference value: 0.246 %); type: functional
SU-DHL-4 = assay: Inhibition of AKT phosphorylation in human SU-DHL-4 cells at 0.25 to 1 uM incubated for 12 hrs by Western blot analysis; type: cell-based; conditions: dose 0.25-1 µM
[21] = test system: PI3-kinase p110-alpha/p85-alpha (Homo sapiens), P27986+P42336 [E542K]; assay: Inhibition of human p110alpha-E545K mutant/p85alpha at 1 uM relative to control; type: protein-complex assay
SUD4 [22] = assay: Antiproliferative activity against human SU-DHL-4 cells assessed as inhibition of cell proliferation by measuring reduction in cell count incubated for 6 days by photographic analysis; type: functional, cell-based; conditions: dose 25-100 nM, time 6.0 day
[23] = molecular target: Bromodomain-containing protein 3 (Homo sapiens, UniProt Q15059); assay: Inhibition of His-tagged BRD3-BD1 (unknown origin) incubated for 30 mins in presence of ATP by Alphascreen assay
[24] = Toxicity in female BALB/c mouse model xenografted with human SU-DHL-6 cells assessed as effect on heart histopathology at 20 mg/kg, po administered once daily via gavage for 15 days by H and E staining based analysis; type: organism-based; conditions: in vivo, 360 h, time 15 day
SU-DHL-6 [25] = assay: Induction of apoptosis in human SU-DHL-6 cells assessed as early apoptotic cells at 0.25 uM incubated for 24 hrs by Annexin V-FITC/PI staining based flow cytometric analysis (reference value: 32.1 %); type: functional
[26] = molecular target: Phosphatidylinositol 4,5-bisphosphate 3-kinase catalytic subunit gamma isoform (Homo sapiens, UniProt P48736); assay: Inhibition of PI3Kgamma (unknown origin) incubated for 2 hrs in presence of ATP by ADP-kinaseGlo reagent based assay
SU-DHL-6 [27] = assay: Induction of apoptosis in human SU-DHL-6 cells assessed as late apoptotic cells at 0.5 uM incubated for 24 hrs by Annexin V-FITC/PI staining based flow cytometric analysis (reference value: 6.43 %); type: functional
SU-DHL-6 [28] = assay: Induction of apoptosis in human SU-DHL-6 cells assessed as late apoptotic cells at 0.25 uM incubated for 24 hrs by Annexin V-FITC/PI staining based flow cytometric analysis (reference value: 6.43 %); type: functional
[29] = Toxicity in female BALB/c mouse model xenografted with human SU-DHL-6 cells assessed as effect on lung histopathology at 20 mg/kg, po administered once daily via gavage for 15 days by H and E staining based analysis; type: organism-based; conditions: in vivo, 360 h, time 15 day
HUVEC = assay: Cytotoxicity against HUVEC cells assessed as effect on cell proliferation at 5 to 20 uM incubated for 72 hrs by Celltiter-luminescence analysis; type: toxicity, cell-based; conditions: human, dose 5-20 µM
[30] = molecular target: PI3K p110 beta/p85 alpha (Homo sapiens) (UniProt P27986+P42338); assay: Inhibition of human p110beta/p85alpha at 1 uM relative to control; type: protein-complex assay
Homo sapiens = species: Homo sapiens; assay: Inhibition of human p110alpha-H1047R mutant/p85alpha at 1 uM relative to control

Chain of Phosphatidylinositol 4,5-bisphosphate 3-kinase catalytic subunit gamma isoform (P48736 whole entry, canonical isoform): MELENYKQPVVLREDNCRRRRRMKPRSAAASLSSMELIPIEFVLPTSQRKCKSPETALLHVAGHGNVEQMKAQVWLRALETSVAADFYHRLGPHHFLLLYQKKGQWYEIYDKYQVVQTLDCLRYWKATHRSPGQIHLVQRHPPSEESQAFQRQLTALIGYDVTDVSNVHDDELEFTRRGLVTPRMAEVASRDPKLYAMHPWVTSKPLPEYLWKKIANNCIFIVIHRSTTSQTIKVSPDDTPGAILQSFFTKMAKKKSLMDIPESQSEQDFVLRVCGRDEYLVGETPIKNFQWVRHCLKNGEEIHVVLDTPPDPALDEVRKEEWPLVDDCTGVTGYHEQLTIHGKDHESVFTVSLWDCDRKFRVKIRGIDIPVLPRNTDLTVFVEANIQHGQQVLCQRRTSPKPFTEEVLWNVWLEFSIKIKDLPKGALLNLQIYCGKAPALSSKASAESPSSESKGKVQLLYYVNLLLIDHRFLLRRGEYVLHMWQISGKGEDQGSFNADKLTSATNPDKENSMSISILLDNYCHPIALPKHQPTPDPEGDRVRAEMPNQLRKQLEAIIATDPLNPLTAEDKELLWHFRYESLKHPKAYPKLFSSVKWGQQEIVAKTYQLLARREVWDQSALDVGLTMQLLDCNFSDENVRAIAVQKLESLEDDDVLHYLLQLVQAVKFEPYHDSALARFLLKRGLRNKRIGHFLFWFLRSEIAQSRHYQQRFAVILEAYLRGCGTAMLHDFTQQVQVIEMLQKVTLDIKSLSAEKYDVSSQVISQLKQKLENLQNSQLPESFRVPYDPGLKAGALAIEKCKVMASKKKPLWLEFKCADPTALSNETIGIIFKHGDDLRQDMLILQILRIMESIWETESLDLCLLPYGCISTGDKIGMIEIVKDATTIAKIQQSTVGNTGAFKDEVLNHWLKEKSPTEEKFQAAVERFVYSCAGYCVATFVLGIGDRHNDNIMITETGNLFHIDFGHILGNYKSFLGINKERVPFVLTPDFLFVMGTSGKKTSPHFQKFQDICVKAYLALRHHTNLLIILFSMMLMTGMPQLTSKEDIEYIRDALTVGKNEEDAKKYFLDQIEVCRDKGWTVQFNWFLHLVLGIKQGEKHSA
Chain of Phosphatidylinositol 3-kinase C2 domain-containing subunit gamma (Homo sapiens) (O75747 whole entry, the tested form may be a part): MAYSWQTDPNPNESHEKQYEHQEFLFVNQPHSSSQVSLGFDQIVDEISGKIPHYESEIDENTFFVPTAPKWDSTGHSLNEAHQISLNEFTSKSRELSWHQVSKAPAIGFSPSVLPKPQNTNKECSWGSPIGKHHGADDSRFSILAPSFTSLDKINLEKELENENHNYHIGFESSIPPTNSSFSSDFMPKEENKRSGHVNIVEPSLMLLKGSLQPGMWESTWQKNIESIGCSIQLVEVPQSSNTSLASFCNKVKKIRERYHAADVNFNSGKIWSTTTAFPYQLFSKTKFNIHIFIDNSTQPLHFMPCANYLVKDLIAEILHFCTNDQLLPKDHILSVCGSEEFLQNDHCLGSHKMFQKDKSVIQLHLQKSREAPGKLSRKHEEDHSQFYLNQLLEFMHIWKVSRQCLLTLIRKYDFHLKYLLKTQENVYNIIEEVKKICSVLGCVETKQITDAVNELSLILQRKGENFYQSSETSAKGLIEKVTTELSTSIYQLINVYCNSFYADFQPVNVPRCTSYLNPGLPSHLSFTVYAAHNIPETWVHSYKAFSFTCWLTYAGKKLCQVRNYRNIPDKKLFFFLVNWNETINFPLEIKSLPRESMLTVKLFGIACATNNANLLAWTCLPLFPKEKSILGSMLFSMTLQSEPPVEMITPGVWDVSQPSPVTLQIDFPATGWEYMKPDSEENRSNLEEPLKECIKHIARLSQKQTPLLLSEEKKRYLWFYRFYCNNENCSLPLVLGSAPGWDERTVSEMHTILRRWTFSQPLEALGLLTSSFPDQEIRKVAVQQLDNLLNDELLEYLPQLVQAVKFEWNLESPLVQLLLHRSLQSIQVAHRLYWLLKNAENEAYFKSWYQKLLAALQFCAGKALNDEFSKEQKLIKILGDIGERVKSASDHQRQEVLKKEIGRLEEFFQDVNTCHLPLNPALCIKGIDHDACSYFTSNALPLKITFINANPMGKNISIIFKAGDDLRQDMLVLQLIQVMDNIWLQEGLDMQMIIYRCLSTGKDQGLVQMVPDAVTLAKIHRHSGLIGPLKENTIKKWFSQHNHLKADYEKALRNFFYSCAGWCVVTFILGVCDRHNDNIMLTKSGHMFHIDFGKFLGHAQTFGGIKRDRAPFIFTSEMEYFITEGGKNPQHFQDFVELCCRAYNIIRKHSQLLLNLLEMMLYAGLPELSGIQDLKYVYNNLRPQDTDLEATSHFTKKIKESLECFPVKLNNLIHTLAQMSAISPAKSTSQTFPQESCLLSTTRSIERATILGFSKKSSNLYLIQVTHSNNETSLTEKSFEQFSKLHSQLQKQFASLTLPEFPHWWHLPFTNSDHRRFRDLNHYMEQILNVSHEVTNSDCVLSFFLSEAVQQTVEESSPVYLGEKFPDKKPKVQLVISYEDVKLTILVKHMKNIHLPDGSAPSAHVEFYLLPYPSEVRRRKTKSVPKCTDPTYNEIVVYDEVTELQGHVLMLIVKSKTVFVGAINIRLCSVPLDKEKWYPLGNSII
Chain of PI3K p110 beta/p85 alpha (Homo sapiens) (P27986 2-724 limits assumed): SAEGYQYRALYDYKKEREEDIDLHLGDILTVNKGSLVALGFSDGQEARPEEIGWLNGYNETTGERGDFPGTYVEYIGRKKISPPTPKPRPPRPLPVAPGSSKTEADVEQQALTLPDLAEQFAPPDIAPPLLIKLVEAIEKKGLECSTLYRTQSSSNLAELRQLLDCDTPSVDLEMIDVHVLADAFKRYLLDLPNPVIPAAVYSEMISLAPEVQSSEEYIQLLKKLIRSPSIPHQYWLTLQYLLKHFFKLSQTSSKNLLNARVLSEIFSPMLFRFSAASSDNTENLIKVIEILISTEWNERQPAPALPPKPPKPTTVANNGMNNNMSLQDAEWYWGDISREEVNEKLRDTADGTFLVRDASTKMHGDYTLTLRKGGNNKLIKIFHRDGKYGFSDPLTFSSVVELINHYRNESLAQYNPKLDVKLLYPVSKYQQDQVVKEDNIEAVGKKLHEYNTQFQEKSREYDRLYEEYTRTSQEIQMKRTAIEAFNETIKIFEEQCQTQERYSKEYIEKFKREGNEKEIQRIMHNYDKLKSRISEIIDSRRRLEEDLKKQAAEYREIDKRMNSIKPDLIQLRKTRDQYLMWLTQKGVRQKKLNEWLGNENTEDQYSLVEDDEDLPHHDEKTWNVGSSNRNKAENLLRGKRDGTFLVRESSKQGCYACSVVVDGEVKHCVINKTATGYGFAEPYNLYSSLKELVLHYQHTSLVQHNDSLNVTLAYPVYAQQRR
Chain of PI3K p110 beta/p85 alpha (Homo sapiens) (P42338 whole entry partner): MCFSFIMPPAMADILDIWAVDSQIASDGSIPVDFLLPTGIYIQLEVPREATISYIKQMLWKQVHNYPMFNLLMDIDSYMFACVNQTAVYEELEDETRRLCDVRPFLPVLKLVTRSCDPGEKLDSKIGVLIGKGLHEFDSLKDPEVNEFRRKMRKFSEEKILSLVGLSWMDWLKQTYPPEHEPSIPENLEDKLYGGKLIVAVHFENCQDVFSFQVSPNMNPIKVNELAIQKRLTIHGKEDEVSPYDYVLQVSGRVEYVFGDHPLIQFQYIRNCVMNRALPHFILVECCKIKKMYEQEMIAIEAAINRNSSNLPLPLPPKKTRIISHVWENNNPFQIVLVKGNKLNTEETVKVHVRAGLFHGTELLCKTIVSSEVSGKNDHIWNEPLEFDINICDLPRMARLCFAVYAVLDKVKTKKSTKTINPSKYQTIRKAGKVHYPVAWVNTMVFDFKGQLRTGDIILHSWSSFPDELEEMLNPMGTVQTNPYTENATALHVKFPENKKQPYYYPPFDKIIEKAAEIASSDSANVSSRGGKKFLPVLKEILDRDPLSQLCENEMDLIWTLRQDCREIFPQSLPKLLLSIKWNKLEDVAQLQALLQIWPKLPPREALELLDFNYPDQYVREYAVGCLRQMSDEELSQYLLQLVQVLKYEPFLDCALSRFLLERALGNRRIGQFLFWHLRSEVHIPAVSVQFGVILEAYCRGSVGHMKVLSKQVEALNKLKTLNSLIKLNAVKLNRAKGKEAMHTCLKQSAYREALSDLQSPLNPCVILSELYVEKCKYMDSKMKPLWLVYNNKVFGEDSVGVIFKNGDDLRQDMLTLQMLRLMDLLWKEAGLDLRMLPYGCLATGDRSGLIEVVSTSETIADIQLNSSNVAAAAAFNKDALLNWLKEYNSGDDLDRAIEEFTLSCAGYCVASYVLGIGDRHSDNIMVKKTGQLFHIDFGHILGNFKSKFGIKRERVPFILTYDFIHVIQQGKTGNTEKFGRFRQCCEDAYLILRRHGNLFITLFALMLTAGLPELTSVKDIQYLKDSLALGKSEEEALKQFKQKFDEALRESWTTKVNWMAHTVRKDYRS
Chain of Bromodomain-containing protein 3 (Q15059 whole entry): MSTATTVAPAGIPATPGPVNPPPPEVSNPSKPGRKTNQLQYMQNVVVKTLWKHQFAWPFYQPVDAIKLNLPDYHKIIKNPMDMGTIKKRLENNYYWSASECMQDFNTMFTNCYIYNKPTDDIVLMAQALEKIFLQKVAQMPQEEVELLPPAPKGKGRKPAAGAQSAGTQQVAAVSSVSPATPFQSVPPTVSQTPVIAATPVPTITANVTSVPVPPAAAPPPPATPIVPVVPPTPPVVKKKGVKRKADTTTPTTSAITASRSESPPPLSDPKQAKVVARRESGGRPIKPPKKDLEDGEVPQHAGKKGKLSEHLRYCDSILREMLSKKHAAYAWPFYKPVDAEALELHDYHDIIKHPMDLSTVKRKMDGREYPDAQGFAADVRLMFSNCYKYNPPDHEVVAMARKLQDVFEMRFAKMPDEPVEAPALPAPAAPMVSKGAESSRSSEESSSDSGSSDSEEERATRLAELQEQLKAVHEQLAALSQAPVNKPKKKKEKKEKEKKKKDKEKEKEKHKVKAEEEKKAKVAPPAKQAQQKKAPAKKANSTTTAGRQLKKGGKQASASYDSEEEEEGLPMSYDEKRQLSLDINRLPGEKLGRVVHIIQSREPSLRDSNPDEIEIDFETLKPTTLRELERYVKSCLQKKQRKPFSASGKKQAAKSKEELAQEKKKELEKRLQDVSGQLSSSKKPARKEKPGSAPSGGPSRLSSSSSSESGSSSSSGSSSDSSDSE

- inhibition [1]: 72.6%
- inhibition [5]: 41.6%
- inhibition [6]: 41%
- half-life [7]: 2 h
- IC50 [8]: 46 nM
- inhibition [10]: 15.6%
- IC50 [12]: 6130 nM
- IC50 [13]: 2 nM
- Tmax [18]: 0.5 h
- inhibition [21]: 17.3%
- IC50 [23]: 32 nM
- IC50 [26]: 915 nM
- inhibition [30]: 44.3%
- inhibition (Homo sapiens): 33.7%
Compound: Cn1cc(-c2nc(N3CCOCC3)c3sc(CN4CCC(C(C)(C)O)CC4)cc3n2)c2cc[nH]c2c1=O
- Activity (SUD4 [2]): 12.6%
- Activity [3]: Non-toxic
- Activity (SU-DHL-6 [4]): Active; Modest Effect Observed
- Activity (SU-DHL-6 [9]): Active
- Activity (SUD4 [11]): 1.34%
- Activity (SU-DHL-6 [14]): Dose-dependent-effect
- inhibition in vivo at 20 mg/kg (SU-DHL-6 [15]): 70.8%
- Activity (SUD4 [16]): Active
- Activity [17]: Non-toxic
- Activity (SU-DHL-6 [19]): 48.9%
- Activity (SU-DHL-6 [20]): 0.481%
- inhibition (SU-DHL-4): Active
- Activity (SUD4 [22]): Dose-dependent-effect; Stronger Effect Observed At Lower Concentration Than Those Of Sf2523
- Activity [24]: Non-toxic
- Activity (SU-DHL-6 [25]): 39.5%
- Activity (SU-DHL-6 [27]): 7.86%
- Activity (SU-DHL-6 [28]): 6.32%
- Activity [29]: Non-toxic
- Activity (HUVEC): Non-toxic
